Measured values reported in patent US20250109121A1, “POTENT AND SELECTIVE SMARCA2 DEGRADING CHIMERIC MOLECULES AS CANCER THERAPEUTICS” (BOARD OF REGENTS, THE UNIVERSITY OF TEXAS SYSTEM, priority 2021, published 2025).
Entries after “also recorded” stand apart in the source; their conditions may differ. Read-outs that look alike come from different tables or passages of the source.

Assays:
wild-type SMARCA4 cells = assay: Colony assay / cell proliferation, wild-type SMARCA4 cell lines as a group; type: cell-based
Experimental: (§1) Cell lines with wild-type SMARCA4 (HCC44, H2122, H1792 and H1975) and cell lines with mutant SMARCA4 (H1693, HCC515, H322, and H1299) were seeded in appropriate dilutions to form colonies in about 1-3 weeks. Cells were treated with ACBI1 or Compound 101 at concentrations of 0.001, 0.01, 0.1, 1, and 10 μm. Colonies were fixed with glutaraldehyde (6% v/v), stained with crystal violet (0.5% w/v) and the percent area of colonies was determined (FIGS. 3A and 3B). In cell lines with wild-type SMARCA4, inhibition of colony growth was more pronounced after treatment with ACBI1 than Compound 101 (FIG. 3A).

SMARCA4 = SMARCA4 (Homo sapiens, UniProt P51532); assay: SMARCA4 degradation in cell lines, western blot; type: cell-based
HCC366 = assay: Cell proliferation (colony assay) IC50; type: cell-based; conditions: HCC366, mutant SMARCA4
HCC827 = assay: Cell proliferation (colony assay) IC50; type: cell-based; conditions: Homo sapiens; HCC827, wild-type SMARCA4
H2126 = assay: Cell proliferation (colony assay) IC50; type: cell-based; conditions: Homo sapiens, NCI-H2126; H2126, mutant SMARCA4
SMARCA2 = SMARCA2 (Homo sapiens, UniProt P51531); assay: SMARCA2 degradation in cell lines, western blot; type: cell-based
Experimental: Cell lines with wild-type SMARCA4 (H1975, H1792, H2122, and H441) were treated with DMSO or 0.001, 0.01, 0.1, 1, or 10 μm of ACBI1 (degrader of SMARCA2, SMARCA4 and polybromo-associated BAF complex PBRM1) or Compound 101 and expression levels of SMARCA2 (FIG. 2A) and SMARCA4 (FIG. 2B) were detected by western blot.
Cell lines with wild-type SMARCA4 (H1792) and mutant SMARCA4 (H1299) were treated for 72 h or 96 h with DMSO or 0.001, 0.01, 0.1, 1, or 10 μm Compound 103 and analyzed by western blot for SMARCA2, SMARCA4, and PBRM1 expression (FIGS. 4A, 4B, and 4C).
Cell lines with wild-type SMARCA4 (H1792) and mutant SMARCA4 (H1299) were treated for 72 h or 96 h with DMSO or 0.001, 0.01, 0.1, 1, or 10 μm Compound 102 and analyzed by western blot for SMARCA2, SMARCA4, and PBRM1 expression (FIGS. 5A, 5B, and 5C).
Cell lines with wild-type SMARCA4 (H1975) were treated with DMSO or 0.001, 0.01, 0.1, 1, or 10 μm of Compounds 104, 105, 106, 107, or 108 and analyzed by western blot for SMARCA2, SMARCA4, and PBRM1 expression (FIGS. 6A and 6B).

[1] = tested on: HCC515 lung cancer xenograft; assay: In vivo anti-tumor efficacy, HCC515 lung cancer xenograft model; conditions: female NCR Nude mice, 12.5 mg/kg intraperitoneally once daily in 15% Solutol with 12.5 mg/kg ritonavir, versus vehicle
Experimental: About 1×10^7 HCC515 cells were injected into the flanks of female NCR Nude Mice. Tumor take was monitored visually and by palpation bi-weekly. Once tumors reached an average volume of 100 mm^3 mice were randomized into control and SMARCA2 degrader groups. Treatment cohorts were as follows: Vehicle was 15% Solutol in water together with 12.5 mg/kg of ritonavir as metabolic stabilizer. In the vehicle group, ten animals were injected with vehicle intraperitoneally. In the treatment group, ten animals were injected intraperitoneally once daily with 12.5 mg/kg of the SMARCA2 degrader Compound 101 in 15% Solutol in water together with 12.5 mg/kg of ritonavir as metabolic stabilizer.
Tumor diameter and volume were calculated based on caliper measurements of tumor length and […] using the formula tumor volume=(length×width^2)/2. Tumor volume and body weight were measured three times a week.

mutant SMARCA4 cells = assay: Colony assay / cell proliferation, mutant SMARCA4 cell lines as a group; type: cell-based
Experimental: as §1

H2122 = assay: Cell proliferation (colony assay) IC50; type: cell-based; conditions: Homo sapiens, NCI-H2122; H2122, wild-type SMARCA4
Experimental: as §1

HCC515 = assay: Cell proliferation (colony assay) IC50; type: cell-based; conditions: Homo sapiens; HCC515, mutant SMARCA4
Experimental: as §1

HCC44 = assay: Cell proliferation (colony assay) IC50; type: cell-based; conditions: Homo sapiens; HCC44, wild-type SMARCA4
Experimental: as §1

H1693 = assay: Cell proliferation (colony assay) IC50; type: cell-based; conditions: Homo sapiens, NCI-H1693; H1693, mutant SMARCA4
Experimental: as §1

H1792 = assay: Cell proliferation (colony assay) IC50; type: cell-based; conditions: Homo sapiens, NCI-H1792; H1792, wild-type SMARCA4
Experimental: as §1

H1975 = assay: Cell proliferation (colony assay) IC50; type: cell-based; conditions: Homo sapiens, NCI-H1975; H1975, wild-type SMARCA4; concentration at which 50% of cellular proliferation is inhibited
Experimental: as §1

H322 = assay: Cell proliferation (colony assay) IC50; type: cell-based; conditions: NCI-H322; H322, mutant SMARCA4
Experimental: as §1

H2228 = assay: Cell proliferation (colony assay) IC50; type: cell-based; conditions: Homo sapiens, NCI-H2228; H2228, wild-type SMARCA4
[2] = H441, wild-type SMARCA4 cell line
[3] = H1975, H1792, H2122, H441, 0.001-10 μm, increasing concentrations

SMARCA4, sequence (P51532 whole entry): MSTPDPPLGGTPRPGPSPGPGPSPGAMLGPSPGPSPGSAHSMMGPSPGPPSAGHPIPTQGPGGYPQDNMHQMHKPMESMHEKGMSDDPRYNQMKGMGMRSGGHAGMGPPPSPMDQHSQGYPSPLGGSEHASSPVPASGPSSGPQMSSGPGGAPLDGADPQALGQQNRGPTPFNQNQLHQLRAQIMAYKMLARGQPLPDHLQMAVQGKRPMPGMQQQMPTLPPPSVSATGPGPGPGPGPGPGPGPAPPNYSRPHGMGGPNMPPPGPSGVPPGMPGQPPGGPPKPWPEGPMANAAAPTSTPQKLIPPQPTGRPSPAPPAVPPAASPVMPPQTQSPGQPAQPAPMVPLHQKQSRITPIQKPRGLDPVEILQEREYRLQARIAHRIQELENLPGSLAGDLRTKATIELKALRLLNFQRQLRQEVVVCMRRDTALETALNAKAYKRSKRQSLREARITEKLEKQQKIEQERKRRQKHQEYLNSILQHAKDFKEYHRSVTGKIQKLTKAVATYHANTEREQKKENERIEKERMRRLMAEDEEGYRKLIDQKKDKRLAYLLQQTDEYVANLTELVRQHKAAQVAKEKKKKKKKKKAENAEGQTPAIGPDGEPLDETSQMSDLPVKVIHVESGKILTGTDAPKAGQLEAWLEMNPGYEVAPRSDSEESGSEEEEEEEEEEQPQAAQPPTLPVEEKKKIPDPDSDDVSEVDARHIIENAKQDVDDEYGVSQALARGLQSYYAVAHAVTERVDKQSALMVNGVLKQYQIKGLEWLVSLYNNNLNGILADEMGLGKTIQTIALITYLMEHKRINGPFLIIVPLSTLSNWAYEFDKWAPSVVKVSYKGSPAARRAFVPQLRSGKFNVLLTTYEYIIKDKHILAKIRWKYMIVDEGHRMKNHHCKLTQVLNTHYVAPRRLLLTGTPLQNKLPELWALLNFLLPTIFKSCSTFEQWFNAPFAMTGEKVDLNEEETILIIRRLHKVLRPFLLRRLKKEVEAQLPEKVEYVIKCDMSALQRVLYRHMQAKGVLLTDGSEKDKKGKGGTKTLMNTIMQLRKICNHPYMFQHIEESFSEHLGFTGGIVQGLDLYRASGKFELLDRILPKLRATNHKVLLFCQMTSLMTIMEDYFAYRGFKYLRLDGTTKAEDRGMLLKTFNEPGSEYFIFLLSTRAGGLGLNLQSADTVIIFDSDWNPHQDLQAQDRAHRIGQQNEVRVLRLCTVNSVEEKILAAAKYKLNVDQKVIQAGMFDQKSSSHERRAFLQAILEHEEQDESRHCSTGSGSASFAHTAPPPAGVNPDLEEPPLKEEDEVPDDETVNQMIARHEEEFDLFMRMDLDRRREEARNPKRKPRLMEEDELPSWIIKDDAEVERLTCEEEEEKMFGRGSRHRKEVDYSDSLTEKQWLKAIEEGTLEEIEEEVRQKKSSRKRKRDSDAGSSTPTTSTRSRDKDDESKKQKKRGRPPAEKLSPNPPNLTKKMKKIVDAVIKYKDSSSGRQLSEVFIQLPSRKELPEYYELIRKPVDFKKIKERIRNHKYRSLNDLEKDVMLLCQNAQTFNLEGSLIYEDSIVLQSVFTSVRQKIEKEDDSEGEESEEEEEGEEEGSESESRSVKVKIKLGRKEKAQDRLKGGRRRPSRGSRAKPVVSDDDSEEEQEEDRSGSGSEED
SMARCA2, sequence (P51531 whole entry): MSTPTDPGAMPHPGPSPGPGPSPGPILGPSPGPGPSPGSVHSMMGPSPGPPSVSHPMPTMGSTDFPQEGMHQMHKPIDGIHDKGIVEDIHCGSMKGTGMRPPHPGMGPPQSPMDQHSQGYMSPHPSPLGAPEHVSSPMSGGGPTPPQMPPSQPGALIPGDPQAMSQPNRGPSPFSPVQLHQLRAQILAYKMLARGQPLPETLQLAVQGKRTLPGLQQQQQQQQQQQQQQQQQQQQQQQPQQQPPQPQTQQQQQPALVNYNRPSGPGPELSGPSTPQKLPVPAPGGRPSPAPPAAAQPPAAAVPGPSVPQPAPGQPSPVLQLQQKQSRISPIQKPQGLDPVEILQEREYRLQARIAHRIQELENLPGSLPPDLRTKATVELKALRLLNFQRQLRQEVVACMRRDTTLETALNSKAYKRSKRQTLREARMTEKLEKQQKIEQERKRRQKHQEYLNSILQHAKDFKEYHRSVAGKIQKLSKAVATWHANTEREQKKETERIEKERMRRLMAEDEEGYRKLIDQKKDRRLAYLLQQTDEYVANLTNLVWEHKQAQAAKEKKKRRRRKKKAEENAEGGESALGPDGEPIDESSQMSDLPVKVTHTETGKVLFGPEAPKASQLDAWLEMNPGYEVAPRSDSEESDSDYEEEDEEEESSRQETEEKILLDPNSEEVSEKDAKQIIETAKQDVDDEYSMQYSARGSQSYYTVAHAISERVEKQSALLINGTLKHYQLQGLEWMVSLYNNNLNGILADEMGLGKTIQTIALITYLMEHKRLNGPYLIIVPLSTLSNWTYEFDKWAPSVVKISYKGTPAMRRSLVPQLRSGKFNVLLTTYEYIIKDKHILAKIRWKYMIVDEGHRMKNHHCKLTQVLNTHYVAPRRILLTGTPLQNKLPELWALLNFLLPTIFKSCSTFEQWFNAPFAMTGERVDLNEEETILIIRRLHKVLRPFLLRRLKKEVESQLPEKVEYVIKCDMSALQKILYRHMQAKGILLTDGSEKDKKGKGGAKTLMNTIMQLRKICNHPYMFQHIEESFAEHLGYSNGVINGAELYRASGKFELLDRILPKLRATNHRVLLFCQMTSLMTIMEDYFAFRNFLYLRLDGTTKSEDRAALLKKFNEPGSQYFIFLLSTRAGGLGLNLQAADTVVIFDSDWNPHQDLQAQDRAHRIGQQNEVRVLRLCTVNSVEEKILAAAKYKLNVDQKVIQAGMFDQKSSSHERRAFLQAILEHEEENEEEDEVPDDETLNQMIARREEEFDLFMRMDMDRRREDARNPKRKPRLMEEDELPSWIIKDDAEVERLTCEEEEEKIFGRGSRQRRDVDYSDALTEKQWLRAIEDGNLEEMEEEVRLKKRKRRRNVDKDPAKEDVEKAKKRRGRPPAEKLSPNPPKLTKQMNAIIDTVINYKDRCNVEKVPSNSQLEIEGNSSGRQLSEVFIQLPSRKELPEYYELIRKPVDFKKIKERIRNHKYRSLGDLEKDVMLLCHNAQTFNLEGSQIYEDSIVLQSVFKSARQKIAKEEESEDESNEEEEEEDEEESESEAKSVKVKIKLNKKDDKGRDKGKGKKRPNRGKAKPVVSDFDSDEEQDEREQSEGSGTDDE

**Q.** How did the inhibition at 0.1 µM (wild-type SMARCA4 cells; read-out: inhibition at 100 nM in wild-type SMARCA4 cells (see FIG. 3D)) turn out when Nc1nnc(-c2ccccc2O)cc1N1CCN(Cc2ccc(OCCOCCNc3cccc4c3C(=O)N(C3CCC(=O)NC3=O)C4=O)c(F)c2)CC1 (stereo not drawn) [Compound 101] was run?
**A.** The inhibition at 0.1 µM was less than 10%.

**Q.** And the IC50 (wild-type SMARCA4 cells; wild-type SMARCA4 cells (Table 4), read-out: IC50, span over cell lines)?
**A.** The IC50 was 970 to 10000 nM.

**Q.** And the “SMARCA4 Dmax (%)” value (SMARCA4; [2])?
**A.** The value was 37%.

**Q.** What about the DC50 (SMARCA4; H441, wild-type SMARCA4 cell line, read-out: SMARCA4 DC50) of the same compound?
**A.** Its DC50 is greater than 10000 nM.

**Q.** What about the DC50 (SMARCA4; H1792, wild-type SMARCA4 cell line, read-out: SMARCA4 DC50) of the same compound?
**A.** Its DC50 is greater than 10000 nM.

**Q.** And the Dmax (SMARCA4; H1975, H1792, H2122, H441 (Table 3), read-out: SMARCA4 Dmax, span over cell lines)?
**A.** Its Dmax is 38 to 50%.

**Q.** And the “SMARCA4 degradation (western blot, in words)” value (SMARCA4; [3])?
**A.** The value was “degraded SMARCA2 and SMARCA4”.

**Q.** What about the DC50 (SMARCA4; H1975, wild-type SMARCA4 cell line, read-out: SMARCA4 DC50) of the same compound?
**A.** The DC50 was greater than 10000 nM.

**Q.** What about the DC50 (SMARCA4; H2122, wild-type SMARCA4 cell line, read-out: SMARCA4 DC50) of the same compound?
**A.** Its DC50 is greater than 10000 nM.

**Q.** And the DC50 (SMARCA4; H2228, wild-type SMARCA4 cell line, read-out: SMARCA4 DC50)?
**A.** Its DC50 is greater than 10000 nM.

**Q.** What about the Dmax (SMARCA4; HCC44, HCC44, wild-type SMARCA4 cell line, read-out: SMARCA4 Dmax (%)) of the same compound?
**A.** The Dmax was 39%.

**Q.** And the DC50 (SMARCA4; HCC44, wild-type SMARCA4 cell line, read-out: SMARCA4 DC50)?
**A.** The DC50 was greater than 10000 nM.

**Q.** And the Dmax (SMARCA4; HCC827, HCC827, wild-type SMARCA4 cell line, read-out: SMARCA4 Dmax (%))?
**A.** Its Dmax is 39%.

**Q.** What about the DC50 (SMARCA4; HCC827, wild-type SMARCA4 cell line, read-out: SMARCA4 DC50) of the same compound?
**A.** The DC50 was greater than 10000 nM.

**Q.** What about the DC50 (SMARCA4; HCC2279, wild-type SMARCA4 cell line, read-out: SMARCA4 DC50) of the same compound?
**A.** Its DC50 is 560 nM.

**Q.** What about the Dmax (SMARCA4; HCC2279, wild-type SMARCA4 cell line, read-out: SMARCA4 Dmax (%)) of the same compound?
**A.** Its Dmax is 79%.

**Q.** And the DC50 (SMARCA4; HOP62, wild-type SMARCA4 cell line, read-out: SMARCA4 DC50)?
**A.** Its DC50 is 1410 nM.

**Q.** What about the Dmax (SMARCA4; HOP-62, HOP62, wild-type SMARCA4 cell line, read-out: SMARCA4 Dmax (%)) of the same compound?
**A.** The Dmax was 77%.

**Q.** What about the Dmax (SMARCA4; NCI-H441, H441, wild-type SMARCA4 cell line, read-out: SMARCA4 Dmax (%)) of the same compound?
**A.** The Dmax was 50%.

**Q.** What about the Dmax (SMARCA4; NCI-H1792, H1792, wild-type SMARCA4 cell line, read-out: SMARCA4 Dmax (%)) of the same compound?
**A.** The Dmax was 38%.

**Q.** And the Dmax (SMARCA4; NCI-H2122, H2122, wild-type SMARCA4 cell line, read-out: SMARCA4 Dmax (%))?
**A.** Its Dmax is 47%.

**Q.** What about the Dmax (SMARCA4; NCI-H2228, H2228, wild-type SMARCA4 cell line, read-out: SMARCA4 Dmax (%)) of the same compound?
**A.** Its Dmax is 25%.

**Q.** And the Dmax (SMARCA4; wild-type SMARCA4 cells (Table 4), read-out: SMARCA4 Dmax, span over cell lines)?
**A.** The Dmax was 38 to 79%.

**Q.** What about the DC50 (SMARCA4; wild-type SMARCA4 cells (Table 4), upper end printed as above 10 μM, read-out: DC50 for SMARCA4 degradation, lower end of span over cell lines) of the same compound?
**A.** Its DC50 is no less than 560 nM.

**Q.** What about the IC50 (HCC366) of the same compound?
**A.** Its IC50 is 242 nM.

**Q.** What about the IC50 (HCC827) of the same compound?
**A.** Its IC50 is greater than 10000 nM.

**Q.** What about the IC50 (H2126) of the same compound?
**A.** The IC50 was roughly 20 nM.

**Q.** And the DC50 (SMARCA2; [2])?
**A.** The DC50 was 99 nM.

**Q.** And the DC50 (SMARCA2; H1792, wild-type SMARCA4 cell line)?
**A.** The DC50 was 94 nM.

**Q.** And the “SMARCA2 degradation (western blot, in words)” value (SMARCA2; [3])?
**A.** The value was “degraded SMARCA2 and SMARCA4”.

**Q.** What about the DC50 (SMARCA2; H1975, wild-type SMARCA4 cell line, concentration at which 50% of the target protein is degraded) of the same compound?
**A.** The DC50 was 103 nM.

**Q.** What about the DC50 (SMARCA2; H2122, wild-type SMARCA4 cell line) of the same compound?
**A.** Its DC50 is 292 nM.

**Q.** What about the “selectivity in degrading SMARCA2 compared to SMARCA4, relative to ACBI1” value (SMARCA2; wild-type SMARCA4 cell lines H1975, H1792, H2122, H441) of the same compound?
**A.** Its value is “greater than 100 times”.

**Q.** And the “tumor volume (in words)” value [1]?
**A.** The value was “substantial reduction in tumor volume”.

**Q.** And the “colony growth / proliferation of mutant SMARCA4 cells (in words)” value (mutant SMARCA4 cells; H1693, HCC515, H322, H1299, 0.001-10 μm)?
**A.** The value was “selectively inhibited SMARCA4 mutant cells; also recorded: selectively inhibited cell proliferation in mutant SMARCA4 cell lines”.

**Q.** And the IC50 (mutant SMARCA4 cells; mutant SMARCA4 cells (Table 5), upper end printed as >10 M, read-out: IC50, lower end of span over cell lines)?
**A.** Its IC50 is no less than 93 nM.

**Q.** What about the inhibition at 0.1 µM (mutant SMARCA4 cells; read-out: inhibition at 100 nM in SMARCA4 mutant cells (see FIG. 3D)) of the same compound?
**A.** Its inhibition at 0.1 µM is no more than 50%.

**Q.** What about the IC50 (H2122) of the same compound?
**A.** Its IC50 is 2600 nM.

**Q.** And the IC50 (HCC515)?
**A.** The IC50 was 817 nM.

**Q.** And the IC50 (HCC44)?
**A.** The IC50 was 2500 nM.

**Q.** What about the IC50 (H1693) of the same compound?
**A.** Its IC50 is 141 nM.

**Q.** And the IC50 (H1792)?
**A.** Its IC50 is 8700 nM.

**Q.** What about the IC50 (H1975) of the same compound?
**A.** Its IC50 is greater than 10000 nM.

**Q.** What about the IC50 (H322) of the same compound?
**A.** Its IC50 is 93 nM.

**Q.** And the IC50 (H2228)?
**A.** The IC50 was 970 nM.
